Data from publication PMC7316778 (Nature Communications, 2020).
Several values for one entry are separate records, joined by “and”; a condition that tells them apart may be missing. Equal entries are not always repeated. Where two headings read alike, the source gives them in different places.

Columns and labels:
FES^WT = target: T1, FES^WT (Homo sapiens, UniProt P07332); test: In vitro TR-FRET kinase assay; format: biochemical; settings: TR-FRET assay, 5 µM ATP; n = 3; read-out: pIC50 FES^WT (converted)
T1 construct: human FES cDNA encoding residues 448–822 or human FER cDNA encoding residues 448–820 was amplified by PCR; made in house; host or cells: E. coli BL21(DE3), co-expressing YopH phosphatase
Method: All measurements were performed in triplicate.

[1] = target: T2, FES^S700C-SYK interaction (Homo sapiens, UniProt P07332, S700C); test: Co-immunoprecipitation in co-transfected U2OS cells; format: cell-based; settings: WEL028 200 nM, 1 h
T2 construct: Full-length human cDNA encoding FES and PAK4 was obtained from Source Bioscience; expressed in transfected cells; host or cells: U2OS (human osteosarcoma)
Method: U2OS cells were co-transfected with FLAG-tagged FES and V5-tagged SYK and grown for 48 h as described above, followed by incubation with vehicle or WEL028 (200 nM) for 1 h. Cells were then washed with PBS and collected by scraping in IP-buffer (20 mM Tris-HCl pH 7.5, 150 mM NaCl, 1% Triton X-100 supplemented with […] Halt™ phosphatase and protease inhibitor cocktail (Thermo Fisher)). Cells were lysed by sonication on ice (three cycles of 10′′ on, 10′′ off at 25% maximum amplitude), centrifuged (14,000g, 10 min, 4 °C). The clear lysate was diluted to 1 mg/mL in IP-buffer and subjected to immunoprecipitation using Dynabeads™ Protein G Immunoprecipitation kit (Thermo Fisher) following manufacturer’s protocol. Briefly, anti-FLAG M2 antibody (1:100, Sigma Aldrich, F3156) was incubated with beads with gentle rotation (10 min, rt), after which lysate (500 µL of 1 mg/mL) was added and incubated (1 h, 4 °C). Beads were washed three times, transferred to clean tubes and eluted by suspension in 2× Laemmli buffer (50 µL, 10 min, 70 °C). Samples (10 µL per lane) were resolved by SDS-PAGE and immunoblotted using anti-V5 or anti-FLAG antibodies. Immunoprecipitations were performed in three independent replicates.

ACVR2B = ACVR2B (Homo sapiens, UniProt Q13705); test: SelectScreen kinase assay
Method: (§1) Selectivity profiling assays were performed by the Invitrogen SelectScreen™ Services. […] The concentration of ATP was selected to be equal to the KM, unless indicated otherwise.

CAMK4 (CaMKIV) = CAMK4 (CaMKIV) (Homo sapiens, UniProt Q16566); test: SelectScreen kinase assay
Method: as §1

CDK8/cyclin C = CDK8/cyclin C (Homo sapiens, UniProt P49336); test: SelectScreen kinase assay; settings: read-out: Inhibition at 1 µM (%)
Method: as §1

EEF2K = target: T3, EEF2K (Homo sapiens, UniProt O00418); test: SelectScreen kinase assay
T3 sequence (O00418 1-725): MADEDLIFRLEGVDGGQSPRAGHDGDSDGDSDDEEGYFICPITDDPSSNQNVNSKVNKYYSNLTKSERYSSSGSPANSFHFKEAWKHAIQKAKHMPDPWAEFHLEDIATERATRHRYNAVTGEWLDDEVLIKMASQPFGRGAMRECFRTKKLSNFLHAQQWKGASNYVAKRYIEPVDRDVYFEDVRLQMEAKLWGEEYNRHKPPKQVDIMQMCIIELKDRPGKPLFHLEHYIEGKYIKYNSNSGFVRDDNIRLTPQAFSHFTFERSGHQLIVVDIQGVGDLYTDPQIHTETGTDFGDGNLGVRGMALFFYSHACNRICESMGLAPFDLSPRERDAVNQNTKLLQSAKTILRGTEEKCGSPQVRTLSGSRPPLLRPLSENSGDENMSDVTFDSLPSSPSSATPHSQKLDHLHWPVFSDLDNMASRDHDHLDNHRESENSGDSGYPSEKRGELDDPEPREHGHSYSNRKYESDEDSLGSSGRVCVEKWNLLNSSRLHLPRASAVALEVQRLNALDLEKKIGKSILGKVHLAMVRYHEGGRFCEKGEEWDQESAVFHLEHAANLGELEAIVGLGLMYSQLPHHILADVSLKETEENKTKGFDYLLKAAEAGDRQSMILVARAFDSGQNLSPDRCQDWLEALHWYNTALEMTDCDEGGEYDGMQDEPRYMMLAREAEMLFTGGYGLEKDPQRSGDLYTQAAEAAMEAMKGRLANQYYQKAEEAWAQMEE
Method: as §1

FGR = FGR (Homo sapiens, UniProt P09769); test: SelectScreen kinase assay
Method: as §1

MAP2K4 (MEK4) = target: T4, MAP2K4 (MEK4) (Homo sapiens, UniProt P45985); test: SelectScreen kinase assay
T4 sequence (P45985 1-399): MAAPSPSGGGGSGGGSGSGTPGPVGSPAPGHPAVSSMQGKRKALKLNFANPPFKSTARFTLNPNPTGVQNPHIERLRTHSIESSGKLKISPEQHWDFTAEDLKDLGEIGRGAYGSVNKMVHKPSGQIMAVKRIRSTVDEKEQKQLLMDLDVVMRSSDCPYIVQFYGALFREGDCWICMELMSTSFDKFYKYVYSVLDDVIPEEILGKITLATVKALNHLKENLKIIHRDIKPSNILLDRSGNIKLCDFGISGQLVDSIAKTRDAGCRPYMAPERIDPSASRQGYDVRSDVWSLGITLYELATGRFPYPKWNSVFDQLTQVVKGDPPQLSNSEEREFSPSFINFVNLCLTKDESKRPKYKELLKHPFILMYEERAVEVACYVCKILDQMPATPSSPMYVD
Method: as §1

MKNK1 (MNK1) = MKNK1 (MNK1) (Homo sapiens, UniProt Q9BUB5); test: SelectScreen kinase assay
Method: as §1

[2] = target: PIK3CB/PIK3R2 (p110 beta/p85 beta) (Homo sapiens, UniProt P42338); test: SelectScreen kinase assay
Method: as §1

PTK6 (Brk) = PTK6 (Brk) (Homo sapiens, UniProt Q13882); test: SelectScreen kinase assay
Method: as §1

SYK = SYK (Homo sapiens, UniProt P43405); test: SelectScreen kinase assay
Method: as §1

[3] = 1 h, 1 μM WEL028, 1 h preincubation
[4] = 1 µM, ZLYTE, ATP Km app, listed as WEL028, 1 µM

ACVR2B, sequence (Q13705 19-512): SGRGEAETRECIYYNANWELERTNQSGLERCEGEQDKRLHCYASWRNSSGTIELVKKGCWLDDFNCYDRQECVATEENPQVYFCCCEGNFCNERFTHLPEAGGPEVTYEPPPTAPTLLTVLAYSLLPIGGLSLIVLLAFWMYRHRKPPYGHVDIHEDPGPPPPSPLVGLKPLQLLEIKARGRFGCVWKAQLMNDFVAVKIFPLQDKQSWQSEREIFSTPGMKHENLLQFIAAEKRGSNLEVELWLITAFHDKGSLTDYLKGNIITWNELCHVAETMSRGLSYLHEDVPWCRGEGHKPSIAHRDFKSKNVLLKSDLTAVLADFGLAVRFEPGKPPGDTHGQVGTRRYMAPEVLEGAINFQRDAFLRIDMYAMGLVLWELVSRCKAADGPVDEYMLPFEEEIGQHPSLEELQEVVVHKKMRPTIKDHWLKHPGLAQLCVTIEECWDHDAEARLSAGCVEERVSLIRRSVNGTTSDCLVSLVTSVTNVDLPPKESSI
FGR, sequence (P09769 whole entry): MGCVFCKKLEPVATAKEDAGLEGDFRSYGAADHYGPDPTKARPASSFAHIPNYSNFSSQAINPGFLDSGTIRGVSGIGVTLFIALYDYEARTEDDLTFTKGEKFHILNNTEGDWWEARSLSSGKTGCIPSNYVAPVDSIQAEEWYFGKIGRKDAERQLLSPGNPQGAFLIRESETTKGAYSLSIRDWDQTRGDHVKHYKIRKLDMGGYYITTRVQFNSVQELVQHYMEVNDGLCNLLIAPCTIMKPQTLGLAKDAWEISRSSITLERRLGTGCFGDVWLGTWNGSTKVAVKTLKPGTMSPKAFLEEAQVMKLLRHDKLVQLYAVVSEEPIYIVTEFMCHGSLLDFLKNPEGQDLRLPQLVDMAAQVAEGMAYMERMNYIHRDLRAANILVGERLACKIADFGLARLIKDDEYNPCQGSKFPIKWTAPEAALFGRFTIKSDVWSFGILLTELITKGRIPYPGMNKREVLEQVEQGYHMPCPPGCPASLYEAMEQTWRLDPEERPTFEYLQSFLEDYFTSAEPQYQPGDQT
PIK3CB/PIK3R2 (p110 beta/p85 beta), sequence (P42338 whole entry): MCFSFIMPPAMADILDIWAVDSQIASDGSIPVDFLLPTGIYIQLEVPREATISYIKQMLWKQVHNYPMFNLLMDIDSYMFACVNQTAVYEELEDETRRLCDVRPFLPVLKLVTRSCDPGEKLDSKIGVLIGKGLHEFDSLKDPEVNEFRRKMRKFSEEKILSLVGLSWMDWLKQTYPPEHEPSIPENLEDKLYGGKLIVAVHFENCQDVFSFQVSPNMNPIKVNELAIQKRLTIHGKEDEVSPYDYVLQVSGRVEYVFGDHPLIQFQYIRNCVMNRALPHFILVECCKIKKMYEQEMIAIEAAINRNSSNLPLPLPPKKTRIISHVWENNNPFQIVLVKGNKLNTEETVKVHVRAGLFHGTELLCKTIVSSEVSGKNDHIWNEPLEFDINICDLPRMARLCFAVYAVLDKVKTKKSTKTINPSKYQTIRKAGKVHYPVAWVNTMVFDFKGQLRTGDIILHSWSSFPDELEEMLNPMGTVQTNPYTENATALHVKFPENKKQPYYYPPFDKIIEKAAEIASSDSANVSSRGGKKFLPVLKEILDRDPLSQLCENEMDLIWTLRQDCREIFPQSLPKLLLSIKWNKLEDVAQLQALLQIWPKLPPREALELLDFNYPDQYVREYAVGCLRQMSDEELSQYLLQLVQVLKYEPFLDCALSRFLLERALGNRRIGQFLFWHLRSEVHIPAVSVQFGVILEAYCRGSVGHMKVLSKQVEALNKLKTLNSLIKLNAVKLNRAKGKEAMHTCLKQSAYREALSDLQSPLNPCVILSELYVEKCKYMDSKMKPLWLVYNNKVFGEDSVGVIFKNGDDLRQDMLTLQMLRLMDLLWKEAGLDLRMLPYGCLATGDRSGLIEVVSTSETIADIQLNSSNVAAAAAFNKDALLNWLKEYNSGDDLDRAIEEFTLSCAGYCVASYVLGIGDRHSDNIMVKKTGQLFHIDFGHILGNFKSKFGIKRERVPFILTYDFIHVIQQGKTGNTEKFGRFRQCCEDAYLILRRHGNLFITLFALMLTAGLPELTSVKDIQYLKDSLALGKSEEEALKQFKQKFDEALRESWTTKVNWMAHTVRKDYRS
PIK3CB/PIK3R2 (p110 beta/p85 beta), sequence (O00459 whole entry partner): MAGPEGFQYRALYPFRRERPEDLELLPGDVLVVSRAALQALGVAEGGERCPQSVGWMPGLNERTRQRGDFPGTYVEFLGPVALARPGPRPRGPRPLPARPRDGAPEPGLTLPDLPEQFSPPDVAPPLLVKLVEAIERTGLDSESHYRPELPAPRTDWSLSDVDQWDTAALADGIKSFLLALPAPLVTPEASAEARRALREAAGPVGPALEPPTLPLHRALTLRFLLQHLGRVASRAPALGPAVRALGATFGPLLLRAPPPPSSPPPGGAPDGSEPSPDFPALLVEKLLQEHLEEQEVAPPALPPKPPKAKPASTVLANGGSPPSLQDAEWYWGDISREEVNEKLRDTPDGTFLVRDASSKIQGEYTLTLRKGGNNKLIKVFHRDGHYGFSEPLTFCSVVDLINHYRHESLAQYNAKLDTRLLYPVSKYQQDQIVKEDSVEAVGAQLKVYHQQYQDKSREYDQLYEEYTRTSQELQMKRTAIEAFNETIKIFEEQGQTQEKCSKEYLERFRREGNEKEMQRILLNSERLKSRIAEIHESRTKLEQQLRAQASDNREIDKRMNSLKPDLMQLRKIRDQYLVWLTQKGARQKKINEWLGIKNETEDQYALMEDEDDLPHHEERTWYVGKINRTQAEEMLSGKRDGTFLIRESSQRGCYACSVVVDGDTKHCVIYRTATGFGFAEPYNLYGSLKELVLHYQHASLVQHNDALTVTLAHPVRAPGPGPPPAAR
PTK6 (Brk), sequence (Q13882 whole entry): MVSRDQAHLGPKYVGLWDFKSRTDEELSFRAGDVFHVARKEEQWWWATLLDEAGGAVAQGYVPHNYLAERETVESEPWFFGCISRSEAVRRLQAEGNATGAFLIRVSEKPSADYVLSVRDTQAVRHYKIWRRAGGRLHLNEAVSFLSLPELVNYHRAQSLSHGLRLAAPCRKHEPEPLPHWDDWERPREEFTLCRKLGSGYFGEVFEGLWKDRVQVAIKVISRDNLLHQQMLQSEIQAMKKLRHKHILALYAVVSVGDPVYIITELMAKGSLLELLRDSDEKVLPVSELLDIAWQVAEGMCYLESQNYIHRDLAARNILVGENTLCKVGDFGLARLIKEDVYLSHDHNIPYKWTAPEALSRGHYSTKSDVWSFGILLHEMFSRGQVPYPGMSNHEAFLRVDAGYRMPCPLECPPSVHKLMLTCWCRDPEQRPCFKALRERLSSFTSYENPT
CAMK4 (CaMKIV), sequence (Q16566 whole entry): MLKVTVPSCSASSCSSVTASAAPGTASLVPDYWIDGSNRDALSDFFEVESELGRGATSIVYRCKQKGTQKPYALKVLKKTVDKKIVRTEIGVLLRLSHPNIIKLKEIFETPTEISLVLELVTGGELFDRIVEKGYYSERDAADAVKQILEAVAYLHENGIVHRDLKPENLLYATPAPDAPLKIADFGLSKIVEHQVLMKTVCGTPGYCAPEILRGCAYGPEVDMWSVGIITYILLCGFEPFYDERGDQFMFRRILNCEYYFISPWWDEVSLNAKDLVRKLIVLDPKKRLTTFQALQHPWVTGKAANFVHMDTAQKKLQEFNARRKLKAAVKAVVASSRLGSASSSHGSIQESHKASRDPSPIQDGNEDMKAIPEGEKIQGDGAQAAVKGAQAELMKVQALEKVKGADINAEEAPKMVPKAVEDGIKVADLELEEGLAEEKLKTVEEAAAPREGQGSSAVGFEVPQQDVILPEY
MKNK1 (MNK1), sequence (Q9BUB5 whole entry): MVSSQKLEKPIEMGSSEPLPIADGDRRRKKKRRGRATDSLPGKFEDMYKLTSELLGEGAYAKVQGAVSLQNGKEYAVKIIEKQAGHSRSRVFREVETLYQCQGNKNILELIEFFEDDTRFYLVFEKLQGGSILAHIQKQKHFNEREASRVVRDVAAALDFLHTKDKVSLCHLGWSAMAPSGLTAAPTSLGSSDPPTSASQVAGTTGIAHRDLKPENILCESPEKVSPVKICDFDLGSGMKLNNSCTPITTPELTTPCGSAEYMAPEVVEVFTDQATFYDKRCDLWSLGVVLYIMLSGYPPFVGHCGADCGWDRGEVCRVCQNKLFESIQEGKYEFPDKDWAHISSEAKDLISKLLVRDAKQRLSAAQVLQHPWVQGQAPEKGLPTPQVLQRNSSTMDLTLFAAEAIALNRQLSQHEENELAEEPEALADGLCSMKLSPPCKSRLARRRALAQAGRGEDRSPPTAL
T1 sequence (P07332 448-822): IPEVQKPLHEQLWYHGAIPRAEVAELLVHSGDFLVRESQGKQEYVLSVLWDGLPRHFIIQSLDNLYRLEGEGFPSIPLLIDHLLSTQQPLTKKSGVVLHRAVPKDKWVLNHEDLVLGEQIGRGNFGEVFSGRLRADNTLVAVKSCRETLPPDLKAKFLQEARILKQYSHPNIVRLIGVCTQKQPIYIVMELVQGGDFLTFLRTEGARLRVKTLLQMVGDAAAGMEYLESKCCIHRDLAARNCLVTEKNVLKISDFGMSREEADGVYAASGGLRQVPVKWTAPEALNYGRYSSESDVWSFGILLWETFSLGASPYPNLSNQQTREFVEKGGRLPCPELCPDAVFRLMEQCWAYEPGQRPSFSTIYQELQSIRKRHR

How did the IC50 (FES^WT) turn out when C#CCOc1ccc(Nc2ncc(Cl)c(Nc3ccccc3NC(=O)C=C)n2)c(OC)c1 [Compound 6] was run?
The IC50 was > 3000 nM.

And the “Co-precipitation of SYK with FES” value [1]?
The value was “inhibited the co-precipitation of SYK with FES”.

And the “Inhibition (%)” value (ACVR2B; 1 μM WEL028, 1 h preincubation)?
The value was 9%.

And the “Inhibition at 1 µM (%)” value (ACVR2B; ACVR2B, 1 µM, LanthaScreen Binding, listed as WEL028, 1 µM)?
The value was 7%.

What about the inhibition at 1 µM (ACVR2B; read-out: Inhibition at 1 µM (%), ACVR2B, 1 µM, LanthaScreen Binding) of the same molecule?
The inhibition at 1 µM was 12%.

And the inhibition at 1 µM (CAMK4 (CaMKIV); [3])?
Its inhibition at 1 µM is -5%.

What about the “Inhibition at 1 µM (%)” value (CAMK4 (CaMKIV); CAMK4 (CaMKIV), 1 µM, ZLYTE, ATP Km app) of the same molecule?
Its value is -15%.

What about the inhibition at 1 µM (CDK8/cyclin C) of the same molecule?
Its inhibition at 1 µM is 0%.

And the inhibition at 1 µM (EEF2K; [3])?
The inhibition at 1 µM was 9%.

And the “Inhibition at 1 µM (%)” value (EEF2K; EEF2K, 1 µM, ZLYTE, ATP Km app, listed as WEL028, 1 µM)?
The value was 7%.

What about the inhibition at 1 µM (EEF2K; read-out: Inhibition at 1 µM (%), EEF2K, 1 µM, ZLYTE, ATP Km app) of the same molecule?
Its inhibition at 1 µM is 12%.

And the inhibition at 1 µM (FGR; [3])?
Its inhibition at 1 µM is 10%.

What about the “Inhibition at 1 µM (%)” value (FGR; FGR, 1 µM, ZLYTE, ATP Km app, listed as WEL028, 1 µM) of the same molecule?
Its value is 12%.

And the inhibition at 1 µM (FGR; read-out: Inhibition at 1 µM (%), FGR, 1 µM, ZLYTE, ATP Km app)?
Its inhibition at 1 µM is 7%.

And the IC50 (MAP2K4 (MEK4))?
The IC50 was 3.98 nM.

What about the inhibition at 1 µM (MAP2K4 (MEK4); [3]) of the same molecule?
Its inhibition at 1 µM is 104%.

What about the Apparent fold selectivity (MAP2K4 (MEK4); IC50 on that kinase divided by IC50 on FES^S700C) of the same molecule?
The Apparent fold selectivity was 1 fold.

What about the inhibition at 1 µM (MAP2K4 (MEK4); read-out: Inhibition at 1 µM (%), MAP2K4 (MEK4), 1 µM, LanthaScreen Binding) of the same molecule?
The inhibition at 1 µM was 103%.

What about the inhibition at 1 µM (MKNK1 (MNK1); [3]) of the same molecule?
Its inhibition at 1 µM is 13%.

What about the “Inhibition at 1 µM (%)” value (MKNK1 (MNK1); MKNK1 (MNK1), 1 µM, ZLYTE, ATP Km app) of the same molecule?
The value was 21%.

What about the inhibition at 1 µM [2, 3] of the same molecule?
The inhibition at 1 µM was 2%.

What about the “Inhibition at 1 µM (%)” value ([2]; PIK3CB/PIK3R2 (p110 beta/p85 beta), 1 µM, Adapta, ATP 10, listed as WEL028, 1 µM) of the same molecule?
The value was 4% and -1%.

What about the “Inhibition at 1 µM (%)” value (PTK6 (Brk); [4]) of the same molecule?
Its value is 29%.

And the inhibition at 1 µM (PTK6 (Brk); [3])?
The inhibition at 1 µM was 31%.

What about the inhibition at 1 µM (PTK6 (Brk); read-out: Inhibition at 1 µM (%), 1 µM, ZLYTE, ATP Km app) of the same molecule?
Its inhibition at 1 µM is 33%.

What about the “Inhibition (%)” value (SYK; 1 μM WEL028, 1 h preincubation) of the same molecule?
The value was “did not inhibit”.

And the “Inhibition at 1 µM (%)” value (SYK; [4])?
Its value is 1% and 5%.
